Laboratory results: patent US12258336B2, “Preparation of seimicarbazide-sensitive amine oxidase inhibitor and use thereof” (SHANGHAI ENNOVABIO PHARMACEUTICALS CO., LTD., priority 2018, dated 2025)

Tests used:
[1] = test system: LPS-induced inflammatory disease model in rats; experiment: LPS-induced ocular inflammation model: protein concentration and cell number in aqueous humor; format: in vivo; conditions: rat, LPS footpad injection, 6 mg/kg oral 1 h before induction, 24 hours after induction, mean±SEM
Description: (§1) 22 rats (7-8 weeks, 220-250 g) were divided into 3 groups, which were control group (6), model group (8) and compound treated group (8). For the model group and compound treated group, ocular inflammation was induced by a single injection of 8 μg/100 μL lipopolysaccharide (Sigma-Aldrich-L2880) into the footpad. The rats were grouped according to their body weight 1 h before induction. Example 4 compound (6 mg/kg, 10 mL/kg) or vehicle (10 mL/kg) were orally administered respectively. 24 hours after induction, the anterior aqueous humor was collected and the eyeballs were removed to dissect the retina. Ocular inflammation was quantitatively evaluated by measuring the protein concentration and cell number in the aqueous humor. qPCR method was used to verify changes in the expression of ocular retinal inflammation-related genes.
10 μL of aqueous humor was diluted in 40 μL of PBS and mixed, then 25 μL of mixture was mixed with 75 μL of PBS, and centrifuged at 300 g for 5 min at 4° C. 55 μL of supernatant was aspirated carefully and the protein concentration was determined according to the method described in the BCA Protein Assay Kit (Pierce-23227); after the remaining sample was resuspended, 40 μL of cell suspension was added into 100 μL of 1% FBS/PBS to analyze and count live cells using NovoCyte 3130 flow cytometry after excluding cell debris.

[2] = test system: ALOX5AP, SOCS3 and TLR7 gene expression in retina; experiment: LPS-induced ocular inflammation model: qPCR of inflammation-related genes in retina; format: in vivo; conditions: rat, 6 mg/kg oral, compared with model group
Description: as §1
• 1) Primers were synthesized, with the information shown as follows:
• 2) Retinal RNA was extracted according to operating instructions of RNA extraction kit (RNeasy Mini Kit, Qiagen-74104), and then the RNA was reverse-transcribed into cDNA (High Capacity cDNA Reverse Transcription Kits, ABI-4374966). The obtained cDNA was diluted 10 times to serve as qPCR reaction template. According to instructions of Power SYBR Green kit (ABI-A25918), qPCR reaction was performed on CFX384 Real-Time qPCR equipment. Quantitative analysis of expression changes for each gene expression was performed using CFX Maestro software by ΔΔCt method, with UBC as internal housekeeping gene.

NC/C(=C\F)COc1cnc(N2CCN(C3COC3)CC2)nc1 [Example 4, (E)-3-fluoro-2-(((2-(4-(oxbutan-3-yl)piperazin-1-yl)pyrimidin-5-yl)oxo)methyl)prop-2-en-1-amine]
cell number in aqueous humor ([1]; model group 48.28±21.46): 5.07±0.80 *10^4 cell/mL | protein concentration in aqueous humor ([1]; model group 9730.04±1232.30): 7275.44 ± 622.66 µg/mL | expression level of ALOX5AP gene in retina [2]: significantly reduce | expression level of SOCS3 gene in retina [2]: significantly reduce | expression level of TLR7 gene in retina [2]: significantly reduce
